Key:
human FLAP = human FLAP (Homo sapiens (Human), UniProt P20292); test: FLAP binding assay (HTRF); conditions: human FLAP-containing membranes, HTRF format; average of two assay plates, duplicates; read-out: FLAP Binding wild type HTRF Ki
How it was run: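 Samples were run in duplicate on each of two plates and the plate results averaged. Read-out is the HTRF signal ratio.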

[1] = tested on: leukotriene pathway in human whole blood (LTB4 levels); test: Human whole blood assay (LTB4); type: cell-based; conditions: human whole blood diluted 1:1 in RPMI, stimulated with calcium ionophore A23187; single replicate
Method: The ability of the compounds of the present invention to treat a FLAP-mediated disease and/or disorder, or associated symptoms or complications thereof, was determined using the following procedures. Binding assay data represent the average value obtained from two different assay plates, with samples run in duplicate on each plate. Human whole blood assay data represent a single replicate on an assay plate using whole blood from at least one healthy donor.
An in vitro cellular assay was performed using human whole blood collected in heparin-containing tubes, which was used to test the ability of compounds to modulate the leukotriene pathway in human whole blood. The blood was diluted 1:1 in RPMI medium, pre-incubated for 15 min at 37° Celsius with test compounds at various concentrations, and then stimulated with calcium ionophore, A23187 (7 μg/mL), for 30 min at 37° Celsius. The samples were then centrifuged and plasma was removed. The plasma was diluted in assay buffer and LTB4 levels were measured using a commercial kit (Enzo Life Sciences). The concentration of each compound that was required for half-maximal inhibition (modulation) of recombinant enzyme activity (IC50) was calculated by a 4-parameter equation using the program GraphPad Prism (GraphPad software).

Chain of human FLAP (P20292 whole entry): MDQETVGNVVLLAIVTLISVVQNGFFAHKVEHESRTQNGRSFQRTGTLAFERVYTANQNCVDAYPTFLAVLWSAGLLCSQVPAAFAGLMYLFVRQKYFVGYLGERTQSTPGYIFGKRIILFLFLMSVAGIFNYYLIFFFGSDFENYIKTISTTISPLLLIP

SMILES | Ki (human FLAP) [nM] | IC50 [1] [nM]
Nc1cnc(-c2ccc(C3CCC3)c(OCc3ccccc3-c3nnn[nH]3)c2F)cn1 [Example 22, 5-(4-Cyclobutyl-2-fluoro-3-{[2-(1H-tetrazol-5-yl)benzyl]oxy}phenyl)pyrazin-2-amine] | 6 | > 10000
Nc1cnc(-c2ccc(C3CCC3)c(OCc3ccc(CC(=O)O)cc3)c2F)cn1 [Example 23, (4-{[3-(5-Aminopyrazin-2-yl)-6-cyclobutyl-2-fluorophenoxy]methyl}phenyl)acetic acid] | 2 | 363
Nc1cnc(-c2ccc(C3CCC3)c(OCc3ccccn3)c2F)cn1 [Example 24, 5-[4-Cyclobutyl-2-fluoro-3-(pyridin-2-ylmethoxy)phenyl]pyrazin-2-amine] | 100 | > 10000
CN(C)S(=O)(=O)c1ccc(COc2c(C3CCC3)ccc(-c3cnc(N)cn3)c2F)cc1 [Example 25, 4-{[3-(5-Aminopyrazin-2-yl)-6-cyclobutyl-2-fluorophenoxy]methyl}-N,N-dimethylbenzenesulfonamide] | 12 | 576
Nc1cnc(-c2ccc(C3CCC3)c(OCc3ccc(S(N)(=O)=O)cc3)c2F)cn1 [Example 26, 4-{[3-(5-Aminopyrazin-2-yl)-6-cyclobutyl-2-fluoro-phenoxy]methyl}benzenesulfonamide] | 20 | > 10000
CNS(=O)(=O)c1ccc(COc2c(C3CCC3)ccc(-c3cnc(N)cn3)c2F)cc1 [Example 27, 4-{[3-(5-Aminopyrazin-2-yl)-6-cyclobutyl-2-fluorophenoxy]methyl}-N-methylbenzenesulfonamide] | 6 | 805
Nc1cnc(-c2ccc(C3CCC3)c(OCc3cccc(F)c3)c2F)cn1 [Example 29, 5-{4-Cyclobutyl-2-fluoro-3-[(3-fluorobenzyl)oxy]phenyl}pyrazin-2-amine] | 224 | 1060
Nc1cnc(-c2ccc(C3CCC3)c(OCc3c(F)cccc3F)c2F)cn1 [Example 31, 5-{4-Cyclobutyl-3-[(2,6-difluorobenzyl)oxy]-2-fluorophenyl}pyrazin-2-amine] | 170 | 1960
Nc1cnc(-c2ccc(C3CCC3)c(OCc3ccccc3Cl)c2F)cn1 [Example 34, 5-{3-[(2-Chlorobenzyl)oxy]-4-cyclobutyl-2-fluorophenyl}pyrazin-2-amine] | 304 | 1570
Nc1cnc(-c2ccc(C3CCC3)c(OCc3cccc(Cl)c3)c2F)cn1 [Example 35, 5-{3-[(3-Chlorobenzyl)oxy]-4-cyclobutyl-2-fluorophenyl}pyrazin-2-amine] | 173 | 1140
Nc1cnc(-c2ccc(C3CCC3)c(OCc3ccc(Cl)cc3)c2F)cn1 [Example 36, 5-{3-[(4-Chlorobenzyl)oxy]-4-cyclobutyl-2-fluorophenyl}pyrazin-2-amine] | 220 | 2540
Nc1cnc(-c2ccc(C3CCC3)c(OCc3c(Cl)cccc3Cl)c2F)cn1 [Example 37, 5-{4-Cyclobutyl-3-[(2,6-dichlorobenzyl)oxy]-2-fluorophenyl}pyrazin-2-amine] | 250 | 2500
Cc1ccc(COc2c(C3CCC3)ccc(-c3cnc(N)cn3)c2F)cc1C [Example 41, 5-{4-Cyclobutyl-3-[(3,4-dimethylbenzyl)oxy]-2-fluorophenyl}pyrazin-2-amine] | 250 | 1350
Nc1cnc(-c2ccc(C3CCC3)c(OCc3cc(F)ccc3Cl)c2F)cn1 [Example 45, 5-{3-[(2-Chloro-5-fluorobenzyl)oxy]-4-cyclobutyl-2-fluorophenyl}pyrazin-2-amine] | 193 | 720
Nc1cnc(-c2ccc(C3CCC3)c(OCc3ccccc3C(=O)O)c2F)cn1 [Example 46, 2-{[3-(5-Aminopyrazin-2-yl)-6-cyclobutyl-2-fluorophenoxy]methyl}benzoic acid] | 8 | 5620
Cn1ccc(COc2c(C3CCC3)ccc(-c3cnc(N)cn3)c2F)n1 [Example 47, 5-{4-Cyclobutyl-2-fluoro-3-[(1-methyl-1H-pyrazol-3-yl)methoxy]phenyl}pyrazin-2-amine] | 42 | 300
Cc1ccnc(Oc2c(C3CCC3)ccc(-c3cnc(N)cn3)c2F)n1 [Example 69, 5-{4-cyclobutyl-2-fluoro-3-[(4-methylpyrimidin-2-yl)oxy]phenyl}pyrazin-2-amine] | 30 | 73.9
Nc1cnc(-c2ccc(C3CCC3)c(OCC3CC3)c2F)cn1 [Example 72, 5-[4-Cyclobutyl-3-(cyclopropylmethoxy)-2-fluorophenyl]pyrazin-2-amine] | 18 | 737
COc1ccc(S(F)(F)(F)(F)F)cc1COc1c(C2CCC2)ccc(-c2cnc(N)cn2)c1F [Example 76, 5-(4-Cyclobutyl-2-fluoro-3-{[2-methoxy-5-(pentafluoro-lambda~6~- sulfanyl)benzyl]oxy}phenyl)pyrazin-2-amine] | 250 | 1770
Nc1cnc(-c2ccc(C3CCC3)c(OCc3ccc(S(F)(F)(F)(F)F)cc3F)c2F)cn1 [Example 78, 5-(4-Cyclobutyl-2-fluoro-3-{[2-fluoro-4-(pentafluoro-lambda~6~- sulfanyl)benzyl]oxy}phenyl)pyrazin-2-amine] | 173 | 1290
Nc1cnc(-c2ccc(C3CCC3)c(OCc3ccc(S(F)(F)(F)(F)F)cc3)c2F)cn1 [Example 79, 5-(4-Cyclobutyl-2-fluoro-3-{[4-(pentafluoro-lambda~6~- sulfanyl)benzyl]oxy}phenyl)pyrazin-2-amine] | 250 | 2230
Nc1cnc(-c2ccc(C3CCC3)c(OCc3cccc(S(F)(F)(F)(F)F)c3)c2F)cn1 [Example 80, 5-(4-Cyclobutyl-2-fluoro-3-{[3-(pentafluoro-lambda~6~- sulfanyl)benzyl]oxy}phenyl)pyrazin-2-amine] | 304 | 3290
Nc1cnc(-c2ccc(C3CCC3)c(OCc3ccccc3)c2F)cn1 [Example 83, 5-[3-(Benzyloxy)-4-cyclobutyl-2-fluorophenyl]-pyrazin-2-amine] | 37 | 605
Nc1cnc(-c2ccc(C3CCC3)c(OCCc3ccc(C(=O)O)cc3)c2F)cn1 [Example 84, 4-{2-[3-(5-Aminopyrazin-2-yl)-6-cyclobutyl-2-fluorophenoxy]ethyl}benzoic acid] | 70 | 886
Cc1cc(N)nc(Oc2c(C3CCC3)ccc(-c3cnc(N)cn3)c2F)n1 [Example 86, 2-[3-(5-Aminopyrazin-2-yl)-6-cyclobutyl-2-fluorophenoxy]-6-methylpyrimidin-4-amine] | 5 | 35.1
Nc1cnc(-c2ccc(C3CCC3)c(Oc3nccc(-c4ccccc4)n3)c2F)cn1 [Example 87, 5-{4-Cyclobutyl-2-fluoro-3-[(4-phenylpyrimidin-2-yl)oxy]phenyl}pyrazin-2-amine] | 1 | 6.7
CSc1ccnc(Oc2c(C3CCC3)ccc(-c3cnc(N)cn3)c2F)n1 [Example 88, 5-(4-Cyclobutyl-2-fluoro-3-{[4-(methylsulfanyl)pyrimidin-2-yl]oxy}phenyl)pyrazin-2-amine] | 4 | 36.1
Cc1cc(C)nc(Oc2c(C3CCC3)ccc(-c3cnc(N)cn3)c2F)n1 [Example 89, 5-{4-Cyclobutyl-3-[(4,6-dimethylpyrimidin-2-yl)oxy]-2-fluorophenyl}pyrazin-2-amine] | 4 | 22.2

Source: US9073876B2, “Flap modulators” (JANSSEN PHARMACEUTICA NV, priority 2013, dated 2015)
